Test system in one series: not listed separately
Put plainly: Drug hydrolysis in culture medium of Echinochloa esculenta assessed as compound degradation measured at zero period in culture experiment by HPLC method. As to conditions: read-out: Drug degradation. It counts as ADME, organism-based.
For the molecule `O=C1O/C(=N\c2ccc(OCc3ccc(Cl)cc3)cc2)C2=C1CCCC2`, the degraded is 5%. With `C#CCOc1cc(/N=C2\OC(=O)C3=C2CCCC3)c(F)cc1Cl`, the degraded was 32%. For `O=C1O/C(=N\c2ccc(Cl)cc2F)C2=C1CCCC2`, the degraded was 68%. Turning to `Cc1cc(Cl)ccc1/N=C1\OC(=O)C2=C1CCCC2`, the degraded was determined as 33%. Still for that read-out and setting: for `O=C1O/C(=N\c2ccc(Cl)cc2)C2=C1CCCC2` the value was 10%.

Test system in a further series: not listed separately
Briefly: Half life in culture medium of Echinochloa esculenta after 7 days by HPLC method. In kind it is ADME, organism-based.
Conditions: not given
`O=C1O/C(=N\c2ccc(OCc3ccc(Cl)cc3)cc2)C2=C1CCCC2`: the half-life was 3460 min. `C#CCOc1cc(/N=C2\OC(=O)C3=C2CCCC3)c(F)cc1Cl`: the half-life is 864 min. Still for that read-out and setting: to `Cc1cc(Cl)ccc1/N=C1\OC(=O)C2=C1CCCC2` belongs 432 min; to `O=C1O/C(=N\c2ccc(Cl)cc2)C2=C1CCCC2`, 1150 min.

Another series relates to Scenedesmus acutus. Briefly: Phytotoxic activity against Scenedesmus acutus assessed as protoporphyrin-IX accumulation at 1 uM incubated for 1 hr. In kind it is ADME, organism-based. As to conditions: in vivo.
With `O=C(O)C1=C(C(=O)Nc2ccc(Cl)cc2)CCCC1`, the Activity was 17.6 nmol/mL.

As to `O=C1O/C(=N\c2ccc(Cl)cc2)C2=C1CCCC2`, the Activity was determined as 54.7 nmol/mL. Regarding `O=C1C2=C(CCCC2)C(=O)N1c1ccc(Cl)cc1` [CHLOROPHTHALIUM], the Activity came to 68.2 nmol/mL.

For the origin of these results see ChEMBL document CHEMBL3046496, “Hydrolysis and Phytotoxic Activity ofN-Aryl-3,4,5,6-tetrahydroisophthalimides” (Biosci Biotechnol Biochem, 1993).
